This is an account of results in patent publication US20230339981A1, “KRAS G12D MODULATING COMPOUNDS” (priority 2022, published 2023).

Experiment [1] has as its target GDP-loaded KRAS G12D (Homo sapiens (Human), UniProt P01116, G12D). The experiment is described as follows: KRAS G12D (GDP) biochemical assay (TR-FRET probe displacement). The class given is binding. The following applies: 2 hours. The protocol:
Example A. KRAS G12D (GDP) Biochemical Assay
Compounds were tested for binding to GDP-loaded KRAS G12D in a 384-well assay format using a TR-FRET probe displacement assay in buffer consisting of 50 mM Hepes (pH 7.4), 150 mM NaCl, 5 mM MgCl2 and 0.005% Tween-20. […] Compounds were serially diluted (1:3) in DMSO. The LabCyte ECHO Acoustic dispenser system was used to pre-spot the assay plates (384-well Non-Binding Surface plates, Corning, Catalog #3824) with 50 nL of compound. The compounds were pre-incubated with 5 μL of 2× final enzyme concentration for 30 minutes before adding 5 μL of 2× final concentration of Eu-streptavidin and TR-FRET probe (10 μL final reaction volume). The plates were incubated at room temperature for 2 hours before measuring TR-FRET ratio on the Envision plate reader. IC50 values were defined as the compound concentration that causes a 50% decrease in TR-FRET ratio and were calculated using a sigmoidal dose-response model to generate curve fits.

Experiment [2] concerns GP2D (KRAS G12D) cells. The experiment is described as follows: 2D cell viability assay (CellTiter-Glo). It counts as cell-based. The settings on record: GP2d, 96 h, 4 days. On the procedure:
Example B. 2D Cell Viability Assay
Compounds were tested in a 384-well format for their ability to inhibit the viability of GP2D (KRAS G12D) cells in 2D assays. Compounds were serially diluted (1:3) in DMSO. The LabCyte ECHO Acoustic dispenser system was used to pre-spot assay plates with 200 nL of test molecule per well. 1000 cells/well (40 μL volume per well) in RPMI medium with 10% FBS, and Penicillin-Streptomycin-Glutamine were plated in pre-spotted 384-well plates (Greiner, Catalog #781076) on the BioTEK EL406 liquid dispenser with a 5 μL dispensing cassette (BioTek 7170011). The plates were incubated at 37° C., 5% CO2 for 4 days before addition of CellTiter-Glo (CTG) reagent and measurement of luminescence signal. EC50 values were defined as the compound concentration that causes a 50% decrease in luminescence signal and were calculated using a sigmoidal dose-response model to generate curve fits.

Each structure is given as a SMILES string. A value given as a limit tells only on which side of the number the result lay.

Usually IC50 stands for the point on the concentration scale where inhibition reaches its midpoint. The low end stands for inhibition by little substance, the high end for a need for much substance. In general, EC50 refers to the midpoint of the concentration-response curve. A higher EC50 goes with a less potent agent.

Sequence of GDP-loaded KRAS G12D (P01116-2 other isoform, or with tags, fused parts or gaps G12D): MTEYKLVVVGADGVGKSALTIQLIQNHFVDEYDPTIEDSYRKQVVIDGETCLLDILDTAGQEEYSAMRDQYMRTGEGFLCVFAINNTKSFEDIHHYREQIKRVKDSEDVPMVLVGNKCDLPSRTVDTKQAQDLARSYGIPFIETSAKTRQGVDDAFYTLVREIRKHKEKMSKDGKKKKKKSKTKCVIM

In turn, `Oc1cc(-c2nc3c4c(nc(OC[C@@]56CCCN5C[C@H](F)C6)nc4c2F)N2C[C@H]4CC[C@H](N4)[C@H]2CO3)c2cc(F)ccc2c1` [Example 8, 6-fluoro-4-((5aS,6S,9R)-1-fluoro-12-(((2R,7aS)-2-fluorotetrahydro-1H-pyrrolizin-7a(5H)-yl)methoxy)-5a,6,7,8,9,10-hexahydro-5H-4-oxa-3,10a,11,13,14-pentaaza-6,9-methanonaphtho[1,8-ab]heptalen-2-yl)naphthalen-2-ol] registered an IC50 in experiment [1] of 2 nM. Moreover, the midpoint of the response in experiment [2], the EC50, lay at 54 nM.
As for `Oc1cc(-c2nc3c4c(nc(OC[C@@]56CCCN5C[C@H](F)C6)nc4c2F)N2C[C@H]4CC[C@H](N4)[C@H]2CO3)c2c(C=C(F)F)c(F)ccc2c1` [Example 10, 5-(2,2-difluorovinyl)-6-fluoro-4-((5aS,6S,9R)-1-fluoro-12-(((2R,7aS)-2-fluorotetrahydro-1H-pyrrolizin-7a(5H)-yl)methoxy)-5a,6,7,8,9,10-hexahydro-5H-4-oxa-3,10a,11,13,14-pentaaza-6,9-methanonaphtho[1,8-ab]heptalen-2-yl)naphthalen-2-ol], the IC50 in experiment [1] was found to be 18 nM. This compound had an EC50 in experiment [2] of 250 nM.
The like results for `Oc1cc(-c2nc3c4c(nc(OC[C@@]56CCCN5C[C@H](F)C6)nc4c2F)N2C[C@H]4CC[C@H](N4)[C@H]2CO3)c2c(F)c(F)c(F)cc2c1` [Example 11, 5,6,7-trifluoro-4-((5aS,6S,9R)-1-fluoro-12-(((2R,7aS)-2-fluorotetrahydro-1H-pyrrolizin-7a(5H)-yl)methoxy)-5a,6,7,8,9,10-hexahydro-5H-4-oxa-3,10a,11,13,14-pentaaza-6,9-methanonaphtho[1,8-ab]heptalen-2-yl)naphthalen-2-ol] were, in that order, 1 nM and 56 nM.
The like results for `Oc1cc(-c2nc3c4c(nc(OC[C@@]56CCCN5C[C@H](F)C6)nc4c2F)N2C[C@H]4CC[C@H](N4)[C@H]2CO3)c2c(F)c(F)c(F)c(F)c2c1` [Example 12, 5,6,7,8-tetrafluoro-4-((5aS,6S,9R)-1-fluoro-12-(((2R,7aS)-2-fluorotetrahydro-1H-pyrrolizin-7a(5H)-yl)methoxy)-5a,6,7,8,9,10-hexahydro-5H-4-oxa-3,10a,11,13,14-pentaaza-6,9-methanonaphtho[1,8-ab]heptalen-2-yl)naphthalen-2-ol] were, in that order, 6 nM and 130 nM.
For `Oc1cc(-c2nc3c4c(nc(OC[C@@]56CCCN5C[C@H](F)C6)nc4c2F)N2C[C@H]4CC[C@H](N4)[C@H]2CO3)c2c(CC3CC3)c(F)ccc2c1` [Example 14, 5-(cyclopropylmethyl)-6-fluoro-4-((5aS,6S,9R)-1-fluoro-12-(((2R,7aS)-2-fluorotetrahydro-1H-pyrrolizin-7a(5H)-yl)methoxy)-5a,6,7,8,9,10-hexahydro-5H-4-oxa-3,10a,11,13,14-pentaaza-6,9-methanonaphtho[1,8-ab]heptalen-2-yl)naphthalen-2-ol] the same measures were 34 nM and 530 nM.
With `Oc1cc(-c2nc3c4c(nc(OC[C@@]56CCCN5C[C@H](F)C6)nc4c2F)N2C[C@H]4CC[C@H](N4)[C@@H]2CO3)c2ccccc2c1` [Example 19, 4-((5aR,6S,9R)-1-fluoro-12-(((2R,7aS)-2-fluorotetrahydro-1H-pyrrolizin-7a(5H)-yl)methoxy)-5a,6,7,8,9,10-hexahydro-5H-4-oxa-3,10a,11,13,14-pentaaza-6,9-methanonaphtho[1,8-ab]heptalen-2-yl)naphthalen-2-ol], the IC50 in experiment [1] came out at 590 nM. For the same compound, in experiment [2], the EC50 worked out at 3300 nM.
The like results for `C#Cc1c(F)ccc2cc(O)cc(-c3nc4c5c(nc(OCC6(CN7CCOCC7)CC6)nc5c3F)N3C[C@H]5CC[C@H](N5)[C@H]3CO4)c12` [Example 28, 5-ethynyl-6-fluoro-4-((5aS,6S,9R)-1-fluoro-12-((1-(morpholinomethyl)cyclopropyl)methoxy)-5a,6,7,8,9,10-hexahydro-5H-4-oxa-3,10a,11,13,14-pentaaza-6,9-methanonaphtho[1,8-ab]heptalen-2-yl)naphthalen-2-ol] were, in that order, 0.6 nM and 7 nM.
The like results for `Fc1cccc2c(-c3nc4c5c(nc(OC[C@@]67CCCN6C[C@H](F)C7)nc5c3F)N3C[C@H]5CC[C@H](N5)[C@H]3CO4)cccc12` [Example 31, (5aS,6S,9R)-1-fluoro-2-(5-fluoronaphthalen-1-yl)-12-(((2R,7aS)-2-fluorotetrahydro-1H-pyrrolizin-7a(5H)-yl)methoxy)-5a,6,7,8,9,10-hexahydro-5H-4-oxa-3,10a,11,13,14-pentaaza-6,9-methanonaphtho[1,8-ab]heptalene] were, in that order, 4900 nM and greater than 1000 nM.
For `C#Cc1c(F)ccc2cc(O)cc(-c3nc4c5c(nc(OCC6(CN7CCC(F)CC7)CC6)nc5c3F)N3C[C@H]5CC[C@H](N5)[C@H]3CO4)c12` [Example 32, 5-ethynyl-6-fluoro-4-((5aS,6S,9R)-1-fluoro-12-((1-((4-fluoropiperidin-1-yl)methyl)cyclopropyl)methoxy)-5a,6,7,8,9,10-hexahydro-5H-4-oxa-3,10a,11,13,14-pentaaza-6,9-methanonaphtho[1,8-ab]heptalen-2-yl)naphthalen-2-ol] the same measures were 0.2 nM and 2 nM.
As for `C#Cc1c(F)ccc2cc(O)cc(-c3nc4c5c(nc(OCC6(CN7CCC[C@H](F)C7)CC6)nc5c3F)N3C[C@H]5CC[C@H](N5)[C@H]3CO4)c12` [Example 33, 5-ethynyl-6-fluoro-4-((5aS,6S,9R)-1-fluoro-12-((1-(((S)-3-fluoropiperidin-1-yl)methyl)cyclopropyl)methoxy)-5a,6,7,8,9,10-hexahydro-5H-4-oxa-3,10a,11,13,14-pentaaza-6,9-methanonaphtho[1,8-ab]heptalen-2-yl)naphthalen-2-ol], in experiment [1], the IC50 came out at 0.3 nM. Also, in experiment [2], it took 3 nM to reach a half-maximal effect (EC50).
The like results for `C#Cc1c(F)ccc2cc(O)cc(-c3nc4c5c(nc(OCC6(CN7CCC[C@@H](F)C7)CC6)nc5c3F)N3C[C@H]5CC[C@H](N5)[C@H]3CO4)c12` [Example 34, 5-ethynyl-6-fluoro-4-((5aS,6S,9R)-1-fluoro-12-((1-(((R)-3-fluoropiperidin-1-yl)methyl)cyclopropyl)methoxy)-5a,6,7,8,9,10-hexahydro-5H-4-oxa-3,10a,11,13,14-pentaaza-6,9-methanonaphtho[1,8-ab]heptalen-2-yl)naphthalen-2-ol] were, in that order, 0.2 nM and 2 nM.
For `C#Cc1c(F)ccc2cc(O)cc(-c3nc4c5c(nc(OC[C@@]67CCCN6[C@H](CN=[N+]=[N-])CC7)nc5c3F)N3C[C@H]5CC[C@H](N5)[C@H]3CO4)c12` [Example 36, 4-((5aS,6S,9R)-12-(((3S,7aS)-3-(azidomethyl)tetrahydro-1H-pyrrolizin-7a(5H)-yl)methoxy)-1-fluoro-5a,6,7,8,9,10-hexahydro-5H-4-oxa-3,10a,11,13,14-pentaaza-6,9-methanonaphtho[1,8-ab]heptalen-2-yl)-5-ethynyl-6-fluoronaphthalen-2-ol] the same measures were 0.2 nM and 4 nM.
Consider `Oc1cc(-c2nc3c4c(nc(OC[C@@]56CCCN5C[C@H](F)C6)nc4c2F)N2C[C@H]4CC[C@H](N4)[C@H]2CC3)c2c(OC3CC3)c(F)ccc2c1` [Example 37, 5-cyclopropoxy-6-fluoro-4-((5aR,6S,9R)-1-fluoro-12-(((2R,7aS)-2-fluorotetrahydro-1H-pyrrolizin-7a(5H)-yl)methoxy)-4,5,5a,6,7,8,9,10-octahydro-3,10a,11,13,14-pentaaza-6,9-methanonaphtho[1,8-ab]heptalen-2-yl)naphthalen-2-ol], for which the IC50 in experiment [1] was 1 nM. For the same compound, in experiment [2], the EC50 was 9 nM.
For `C#Cc1c(F)ccc2cc(O)cc(-c3nc4c5c(nc(OCC6(CN7CC[C@@H](C(F)(F)F)C7)CC6)nc5c3F)N3C[C@H]5CC[C@H](N5)[C@H]3CO4)c12` [Example 43, 5-ethynyl-6-fluoro-4-((5aS,6S,9R)-1-fluoro-12-((1-(((R)-3-(trifluoromethyl)pyrrolidin-1-yl)methyl)cyclopropyl)methoxy)-5a,6,7,8,9,10-hexahydro-5H-4-oxa-3,10a,11,13,14-pentaaza-6,9-methanonaphtho[1,8-ab]heptalen-2-yl)naphthalen-2-ol] the same measures were 0.6 nM and 5 nM.
For `C#Cc1c(F)ccc2cc(O)cc(-c3nc4c5c(nc(OCC6(CN7CC[C@H](C(F)(F)F)C7)CC6)nc5c3F)N3C[C@H]5CC[C@H](N5)[C@H]3CO4)c12` [Example 44, 5-ethynyl-6-fluoro-4-((5aS,6S,9R)-1-fluoro-12-((1-(((S)-3-(trifluoromethyl)pyrrolidin-1-yl)methyl)cyclopropyl)methoxy)-5a,6,7,8,9,10-hexahydro-5H-4-oxa-3,10a,11,13,14-pentaaza-6,9-methanonaphtho[1,8-ab]heptalen-2-yl)naphthalen-2-ol] the same measures were 2 nM and 7 nM.
